Source: patent US20100022526A1, “PYRIDAZINE DERIVATIVES, PROCESSES FOR THEIR PREPARATION AND THEIR USE AS FUNGICIDES” (SYNGENTA CROP PROTECTION, INC., priority 2007, published 2010)

Assays:
[1] = tested on: Magnaporthe grisea (Pyricularia oryzae); assay: whole plant or invertebrate; assay type: in vivo; conditions: read-out: inhibit fungal infestation
Alternaria solani = assay: Alternaria solani/tomato/Preventive (Action against Alternaria on Tomato); assay type: in vivo; conditions: preventive spray, tomato plants cv. Roter Gnom, inoculated two days after application, assessed after 4 days, untreated controls infected over 80%, read-out: inhibit fungal infestation
Experimental: (§1) Alternaria solani/tomato/Preventive (Action against Alternaria on Tomato) 4 weeks old tomato plants cv. Roter Gnom are treated with the formulated test compound in a spray chamber. Two days after application tomato plants are inoculated by spraying a spore suspension on the test plants. After an incubation period of 4 days at 22° C./18° C. and 95% r. h. in a greenhouse the disease incidence is assessed.

Septoria tritici = assay: Sentoria tritici/wheat/Preventive (Action against Septoria Leaf Spot on Wheat); assay type: in vivo; conditions: Zymoseptoria tritici, preventive spray, wheat plants cv. Riband, inoculated one day after application, assessed 16-18 days after inoculation, untreated controls infected over 80%, read-out: inhibits fungal infestation
Experimental: Sentoria tritici/wheat/Preventive (Action against Septoria Leaf Spot on Wheat) 2 weeks old wheat plants cv. Riband are treated with the formulated test compound in a spray chamber. One day after application wheat plants are inoculated by spraying a spore suspension (10^6 conidia/ml) on the test plants. After an incubation period of 1 day at 22° C./21° C. and 95% r. h. plants are kept at 22° C./21° C. and 70% r.h. in a greenhouse. The disease incidence is assessed 16-18 days after inoculation.

Botrytis cinerea = assay: Botrytis cinerea/tomato/preventive (Action against Botrytis on Tomato); assay type: in vivo; conditions: preventive spray, tomato plants cv. Roter Gnom, inoculated two days after application, assessed after 3 days, untreated controls infected over 80%, read-out: inhibit fungal infestation
Experimental: as §1, with “Botrytis cinerea/tomato/preventive (Action” for “Alternaria solani/tomato/Preventive (Action”, “against Botrytis” for “against Alternaria”, “of 3” for “of 4”, “at 20°” for “at 22° C./18°”

[2] = tested on: Pyrenophora teres (Helminthosporium teres); assay: Pyrenophora teres (Helminthosporium teres)/barley/preventive (Action against Net Blotch on Barley); assay type: in vivo; conditions: preventive spray, barley plants cv. Regina, inoculated two days after application, assessed after 4 days, untreated controls infected over 80%, read-out: inhibit fungal infestation
Experimental: Pyrenophora teres (Helminthosporium teres)/barley/preventive (Action against Net Blotch on Barley) 1-week-old barley plants cv. Regina are treated with the formulated test compound in a spray chamber. Two days after application barley plants are inoculated by spraying a spore suspension (2.6×10^4 conidia/ml) on the test plants. After an incubation period of 4 days at 20° C. and 95% r. h. the disease incidence is assessed.

Puccinia recondita = assay: Puccinia recondita/wheat/preventive (Action against Brown Rust on Wheat); assay type: in vivo; conditions: preventive spray, wheat plants cv. Arina, inoculated one day after application, assessed 11 days after inoculation, untreated controls infected over 80%, read-out: inhibits fungal infestation
Experimental: Puccinia recondita/wheat/preventive (Action against Brown Rust on Wheat) 1 week old wheat plants cv. Arina are treated with the formulated test compound in a spray chamber. One day after application wheat plants are inoculated by spraying a spore suspension (1×105 uredospores/ml) on the test plants. After an incubation period of 1 day at 20° C. and 95% r. h. plants are kept for 10 days 20° C./18° C. (day/night) and 60% r.h. in a greenhouse. The disease incidence is assessed 11 days after inoculation.

Uncinula necator = assay: Uncinula necator/grape/preventive (Action against Powdery Mildew on Grape); assay type: in vivo; conditions: Erysiphe necator, preventive spray, grape seedlings cv. Gutedel, inoculated one day after application, assessed after 7 days, untreated controls infected over 80%, read-out: inhibit fungal infestation
Experimental: Uncinula necator/grape/preventive (Action against Powdery Mildew on Grape) 5 weeks old grape seedlings cv. Gutedel are treated with the formulated test compound in a spray chamber. One day after application grape plants are inoculated by shaking plants infected with grape powdery mildew above the test plants. After an incubation period of 7 days at 24° C./22° C. and 70% r. h. under a light regime of 14/10 h (light/dark) the disease incidence is assessed.

Row | Structure (SMILES) | inhibition at 200 ppm [1] | inhibition at 200 ppm (Alternaria solani) | inhibition at 200 ppm (Septoria tritici) | melting point | inhibition at 200 ppm (Botrytis cinerea) | inhibition at 200 ppm [2] | inhibition at 200 ppm (Puccinia recondita) | inhibition at 200 ppm (Uncinula necator)
1 | Fc1cc(F)c(-c2c(Cl)nnc(Cl)c2-c2cccc(Cl)c2)c(F)c1 [I.b. 198, 3,6-dichloro-4-(3-chloro-phenyl)-5-(2,4,6-trifluoro-phenyl)-pyridazine] | ≥ 80% | ≥ 80% | ≥ 80% | 138 to 140 °C | ≥ 80% |  |  | 
2 | Fc1cc(F)c(-c2c(Cl)nnc(Cl)c2-c2cccc(Br)c2)c(F)c1 [I.c. 198, 3,6-dichloro-4-(3-bromo-phenyl)-5-(2,4,6-trifluoro-phenyl)-pyridazine] |  |  |  | 120 to 121 °C |  | ≥ 80% | ≥ 80% | 
3 | Cc1cccc(-c2c(Cl)nnc(Cl)c2-c2c(F)cc(F)cc2F)c1 [I.d. 198, 3,6-dichloro-4-m-tolyl-5-(2,4,6-trifluoro-phenyl)-pyridazine] |  |  | ≥ 80% | 121 to 123 °C |  | ≥ 80% |  | 
4 | Oc1nnc(O)c(-c2c(F)cc(F)cc2F)c1-c1cccc(C(F)(F)F)c1 [I.e.196, 4-(3-trifluoromethyl-phenyl)-5-(2,4,6-trifluoro-phenyl)-pyridazine-3,6-diol] |  |  |  | 259 to 260 °C |  |  |  | 
5 | Fc1cc(F)c(-c2c(Cl)nnc(Cl)c2-c2cccc(C(F)(F)F)c2)c(F)c1 [I.e. 198, 3,6-dichloro-4-(3-trifluoromethyl-phenyl)-5-(2,4,6-trifluoro-phenyl)-pyridazine] |  |  |  | 117 to 119 °C | ≥ 80% |  |  | ≥ 80%
6 | Fc1ccc(-c2c(F)nnc(F)c2-c2c(F)cc(F)cc2F)cc1 [I.j. 197, 3,6-difluoro-4-(4-fluoro-phenyl)-5-(2,4,6-trifluoro-phenyl)-pyridazine] |  | ≥ 80% | ≥ 80% | 74 to 76 °C | ≥ 80% | ≥ 80% | ≥ 80% | 
7 | Fc1ccc(-c2c(Cl)nnc(Cl)c2-c2c(F)cc(F)cc2F)cc1 [I.j. 198, 3,6-dichloro-4-(4-fluoro-phenyl)-5-(2,4,6-trifluoro-phenyl)-pyridazine] | ≥ 80% | ≥ 80% | ≥ 80% | 143 to 145 °C | ≥ 80% | ≥ 80% | ≥ 80% | ≥ 80%
8 | COc1nnc(Cl)c(-c2c(F)cc(F)cc2F)c1-c1ccc(F)cc1 [I.j. 199, 3-chloro-5-(4-fluoro-phenyl)-6-methoxy-4-(2,4,6-trifluoro-phenyl)-pyridazine] | ≥ 80% | ≥ 80% | ≥ 80% | 146 to 151 °C | ≥ 80% | ≥ 80% |  | ≥ 80%
9 | Oc1nnc(O)c(-c2c(F)cccc2Cl)c1-c1ccc(Cl)cc1 [I.k.076, 4-(4-chloro-phenyl)-5-(2-chloro-6-fluoro-phenyl)-pyridazine-3,6-diol] |  |  |  | 144 to 149 °C |  |  |  | 
10 | Fc1cccc(Cl)c1-c1c(Cl)nnc(Cl)c1-c1ccc(Cl)cc1 [I.k.078, 3,6-dichloro-4-(2-chloro-6-fluoro-phenyl)-5-(4-chloro-phenyl)-pyridazine] |  |  |  | 144 to 145 °C |  |  |  | 
11 | COc1nnc(Cl)c(-c2c(F)cccc2Cl)c1-c1ccc(Cl)cc1 [I.k.079, 3-chloro-4-(2-chloro-6-fluoro-phenyl)-5-(4-chloro-phenyl)-6-methoxy-pyridazine] |  |  |  | 137 to 141 °C |  |  |  | 
12 | Oc1nnc(O)c(-c2c(F)cc(F)cc2F)c1-c1ccc(Cl)cc1 [I.k.196, 4-(4-chloro-phenyl)-5-(2,4,6-trifluoro-phenyl)-pyridazine-3,6-diol] |  |  |  | 158 to 164 °C |  |  |  | 
13 | Fc1cc(F)c(-c2c(Cl)nnc(Cl)c2-c2ccc(Cl)cc2)c(F)c1 [I.k. 198, 3,6-dichloro-4-(4-chloro-phenyl)-5-(2,4,6-trifluoro-phenyl)-pyridazine] | ≥ 80% |  | ≥ 80% |  | ≥ 80% | ≥ 80% | ≥ 80% | ≥ 80%
14 | O=c1[nH][nH]c(=O)c(-c2c(F)cc(F)cc2F)c1-c1ccc(Br)cc1 [I.l.196, 4-(4-bromophenyl)-5-(2,4,6-trifluorophenyl)-1,2-dihydro-pyridazine-3,6-dione] |  |  |  | 272 to 274 °C |  |  |  | 
15 | Fc1cc(F)c(-c2c(F)nnc(F)c2-c2ccc(Br)cc2)c(F)c1 [I.l. 197, 4-(4-bromophenyl)-3,6-difluoro-5-(2,4,6-trifluorophenyl)-pyridazine] | ≥ 80% | ≥ 80% | ≥ 80% | 132 to 133 °C |  | ≥ 80% | ≥ 80% | ≥ 80%
16 | Fc1cc(F)c(-c2c(Cl)nnc(Cl)c2-c2ccc(Br)cc2)c(F)c1 [I.l. 198, 4-(4-bromophenyl)-3,6-dichloro-5-(2,4,6-trifluorophenyl)-pyridazine] | ≥ 80% | ≥ 80% | ≥ 80% | 134 to 137 °C | ≥ 80% | ≥ 80% | ≥ 80% | 
17 | Cc1ccc(-c2c(Cl)nnc(Cl)c2-c2c(F)cc(F)cc2F)cc1 [I.m. 198, 3,6-dichloro-4-p-tolyl-5-(2,4,6-trifluoro-phenyl)-pyridazine] |  | ≥ 80% | ≥ 80% |  | ≥ 80% | ≥ 80% | ≥ 80% | ≥ 80%
18 | COc1nnc(Cl)c(-c2c(F)cc(F)cc2F)c1-c1ccc(C)cc1 [I.m. 199, 3-chloro-6-methoxy-5-p-tolyl-4-(2,4,6-trifluoro-phenyl)-pyridazine] |  |  | ≥ 80% | 126 to 128 °C |  |  | ≥ 80% | 
19 | CCc1ccc(-c2c(O)nnc(O)c2-c2c(F)cc(F)cc2F)cc1 [I.o.196, 4-(4-ethyl-phenyl)-5-(2,4,6-trifluoro-phenyl)-pyridazine-3,6-diol] |  |  |  | 278 to 289 °C |  |  |  | 
20 | CCc1ccc(-c2c(OC)nnc(Cl)c2-c2c(F)cc(F)cc2F)cc1 [I.o. 199, 3-chloro-5-(4-ethyl-phenyl)-6-methoxy-4-(2,4,6-trifluoro-phenyl)-pyridazine] | ≥ 80% | ≥ 80% | ≥ 80% | 109 to 112 °C |  |  | ≥ 80% | ≥ 80%
21 | COc1ccc(-c2c(O)nnc(O)c2-c2c(F)cc(F)cc2F)cc1 [I.p.196, 4-(4-methoxy-phenyl)-5-(2,4,6-trifluoro-phenyl)-pyridazine-3,6-diol] |  |  |  | 287 to 294 °C |  |  |  | 
22 | COc1ccc(-c2c(Cl)nnc(Cl)c2-c2c(F)cc(F)cc2F)cc1 [I.p. 198, 3,6-dichloro-4-(4-methoxy-phenyl)-5-(2,4,6-trifluoro-phenyl)-pyridazine] | ≥ 80% | ≥ 80% | ≥ 80% | 106 to 109 °C | ≥ 80% |  |  | ≥ 80%
23 | Fc1cc(F)c(-c2c(Cl)nnc(Cl)c2-c2ccc(Cl)c(Cl)c2)c(F)c1 [I.v. 198, 3,6-dichloro-4-(3,4-dichloro-phenyl)-5-(2,4,6-trifluoro-phenyl)-pyridazine] |  | ≥ 80% | ≥ 80% | 139 to 140 °C | ≥ 80% | ≥ 80% |  | 
